As for `Nc1ccccc1C(=O)/C=C/c1nccn1C(c1ccccc1)(c1ccccc1)c1ccccc1`, the melting point fell in the range of 142 to 144 °C.
Turning to `O=C(Oc1cc(-c2ccccc2)c2ccccc2n1)N1CCCCC1`, the melting point turned out to be 85 °C.
Regarding `CC(C)c1cc(Cc2cnc(N)nc2N)cc(C(C)C)c1N`, the melting point is 177 to 180 °C.
Then `CCN(CC)C(=O)Oc1c2c(ccc3cc(F)ccc32)nn1-c1ccc(F)cc1`, with 159 to 160 °C; and `CC1(C)CC(OC(=O)CCc2cc(-n3nc4ccc(S(=O)(=O)c5ccccc5)cc4n3)c(O)c(C(C)(C)C)c2)CC(C)(C)N1`, with 85 to 125 °C; and `O=[N+]([O-])c1ccc(O)cc1SCCO`, with 161 °C.
`CC1(C)CCC(C)(C)c2cc(-c3cc4ccc(C(=O)O)cc4s3)c(Br)cc21` returned a melting point of 272 to 275 °C.
With `COc1cc(C)c2c(c1)CCN2c1nc(Cl)cn(CCSC)c1=O`, the melting point is 111 to 113 °C.
Then `Cc1oc(CCOc2ccc(CC3SC(=N)NC3=O)cc2)nc1CC(C)C` (centres undefined), with 167 to 168 °C; and `CON=C(C(N)=NO)c1ccccc1COc1ccccc1C`, with 110 to 112 °C; and `CCOC(=O)C(=CNCc1cnsn1)C(=O)c1cc(F)c(F)c(F)c1F`, with 154 to 156 °C.
`CCOC(=O)CNC(=O)COc1ccc(C=O)cc1` had a melting point of 94.5 to 95.5 °C.
As for `CCC[C@H]1CC[C@H](CCc2ccc(-c3ccc(OCC)c(F)c3F)cc2)CC1`, the figure is 73 °C; as for `CC(C)(C)c1cc(OCCCCCCc2nnn[nH]2)cc(C(C)(C)C)c1O`, 128 to 131 °C.
The compound `COc1c(F)c(F)c(C2=CC(=O)NC2=O)c(F)c1F` came in with a melting point of 91 °C.
Then `Fc1ccc(C(=S)N2CCCC(c3ccc(Cl)c(Cl)c3)=N2)cc1F`, with 135 to 136 °C; and `CN=C(NC#N)C1=CC2(CCCCC2)Oc2ccc([N+](=O)[O-])cc21`, with 244 to 245 °C.
Then `CN(c1cccc(-c2ccnc3c([N+](=O)[O-])cnn23)c1)S(=O)(=O)c1ccccc1`, with 177 to 179 °C; and `COc1ccc(-c2cncn2-c2ccc(S(C)(=O)=O)cc2)c(Cl)n1`, with 192 to 198 °C.
`O=C(NCC1CC1)c1ccc(F)c2c1CC(N(CCCc1c[nH]c3ccc(F)cc13)C1CCC1)CO2` (centres undefined) showed a melting point of 114 °C.
Then `Cc1cc(CN2CCOCC2)cc2c1Cc1c(-c3ccsc3)n[nH]c1-2`, with 232 to 233 °C.
As for `CC(=O)OC1CSC(Oc2ccc(C)nc2C)C(OC(C)=O)C1OC(C)=O` (centres undefined), the figure is 139 to 140 °C; as for `CCCN(CCc1coc2c(OC)cccc12)C1COc2c(F)ccc(C(N)=O)c2C1` (centres undefined), 125 to 132 °C.
With `O=C(NC(=O)c1c(F)cccc1F)Nc1cc(Cl)c(OC(F)(F)C(F)(F)F)cc1Cl`, the melting point lay within 178 to 179 °C.
Then `CC(C)(C)C(O)(C=Cc1ccc(C2OCCO2)cc1)Cn1cncn1` (centres undefined), with 110 °C; and `COc1cc2c(cc1Cl)CCN(C)CC2c1ccc(I)cc1` (centres undefined), with 130 to 132 °C; and `COCc1ncc(-n2nc(C)cc2C)nc1Nc1ccc(Cl)cc1`, with 105 to 108 °C.
As for `CCOC(=O)c1c(C(F)(F)F)nsc1SC`, the figure is 64 to 65 °C.
Take `CC12CC(N3CCC(=O)CC3)C(O)CC1CCC1C2CCC2(C)C(O)C(N3CCCCC3)CC12` (centres undefined): the melting point lay in the range of 205 to 206 °C.
As for `CC(C)N(C(=O)n1oc(=O)n(C)c1=O)c1ccc(F)cc1`, the figure is 135 to 136 °C; as for `O=C(O)Cc1c(Oc2ccc3c(c2)OCO3)cccc1Oc1ccc2c(c1)OCO2`, 176 to 177 °C.
For the compound `C/C=C/c1ccc2nc(Cl)c(S(N)(=O)=O)n2n1`, the melting point is 225 to 229 °C.
Then `O=C1CCCc2nc3ccccc3c(NCc3ccccc3)c21`, with 162 to 163 °C; and `COc1ccc(-c2cc(=O)n(Cc3ccc(F)cc3)nc2-c2ccc(OC)cc2)cc1`, with 132 to 133 °C.
Then `Nc1scc2c(C(=O)NC3CC3)nn(-c3ccc(Cl)cc3)c(=O)c12`, with 188 to 190 °C.
With `O=C(Nc1c(C(O)(C(F)(F)F)C(F)(F)F)ccc2ccccc12)c1ccc(Cl)c(Cl)c1`, the melting point lay within 174 to 175 °C.
For `COC(=O)c1c(C)nc(C)c(C(=O)OC)c1-c1ccccc1[N+](=O)[O-]`, the melting point lay within 99 to 101 °C.
As for `CC(=O)NCC1CC(c2ccc(-n3cccc3)c(F)c2)=NO1` (single isomer, unassigned; (-)), the figure is 176 to 177 °C; as for `CNC(=O)Cn1c(-c2ccc(C)s2)nc2cccnc21`, 213 to 216 °C.
Then `O=C(O)Cc1cc(Br)c(S(=O)(=O)c2ccc(O)c(I)c2)c(Br)c1`, with 174 to 176 °C; and `CC(=O)N1CCC(CCCCC(=O)c2ccc(F)cc2)CC1`, with 98 to 100 °C.
As for `COC(=O)c1sccc1NC(C)=O`, the figure is 93 to 95 °C.
For the compound `CCCCCCOc1ccc2c(ccc3nc(OCCCCCC)ccc32)n1`, the melting point came out at 91 °C.
Compound `O=C1CCCN1CCCn1c(=O)[nH]c2ncc(-c3ccc(O)cc3)nc21` gave a melting point of 305 to 306 °C.
As for `CCOC(=O)C1=C(C)N(C(C)=O)C(c2csc(C)n2)=NC1C1(F)C=CC=CC1Cl` (centres undefined), the figure is 164 to 166 °C; as for `O=C1CC2(CCCC2)C(=O)N1c1cc(Cc2n[nH]c(=O)c3ccccc23)ccc1F`, 215 to 220 °C; as for `CC(=O)c1cc2c(s1)CCc1cc(=O)n(-c3ccc(C)cc3)nc1-2`, 240 to 242 °C.
As for `C=C(C)C(=O)Oc1ccc(NS(C)(=O)=O)c(C)c1`, the figure is 95 to 97 °C; as for `CCCOc1nc(N)nc2nc[nH]c12`, 198 to 200 °C.
Then `COc1cc(Cl)cc(C(=O)C(F)(F)F)c1N`, with 124 to 126 °C; and `CNc1c(OCCN(Cc2ccccc2)C(=O)OC(C)(C)C)cccc1[N+](=O)[O-]`, with 91 to 93 °C.
With `COC(=O)C(C)(C)Cc1cc2cc(OCc3ccc4ccccc4n3)ccc2[nH]1`, the melting point was in the range of 131 to 132 °C.
Then `CN(C)C(C#N)C1(c2ccc(Cl)cc2)CCC1` (centres undefined), with 90 to 91 °C; and `Cc1ccc(Cc2ccc3nc(N)sc3c2)s1`, with 179 to 181 °C.
Take `CC(=O)OC(C(Oc1ccc(Cl)cc1)n1ccnc1)C(C)(C)C` (centres undefined): the melting point lay within 81 to 91 °C.
`COCCCc1ccc(CNC(=O)[C@@H](COC)NC(C)=O)cc1` showed a melting point of 105 to 107 °C.
`CCC(=O)c1ccc2c(c1)OCC(=O)N2` had a melting point of 174 to 176 °C.
Then `O=C(O)c1cc(NCc2c(F)c(F)c(C(F)(F)F)c(F)c2F)ccc1[N+](=O)[O-]`, with 121 °C.
As for `N#Cc1ccc(NS(=O)(=O)c2ccc(Cl)cc2)cc1`, the figure is 182 to 184 °C.
Then `COCCN1CCN(c2ccc(NC(=O)c3cnn(-c4ccc(Cl)cc4)c3C)cc2C#N)CC1`, with 207 °C; and `CCOC(C)=NS(=O)(=O)c1nc(-c2ccccc2)ns1`, with 120 to 122 °C; and `CN1CCN(C(=O)c2cc3ccccc3c(=O)[nH]2)CC1`, with 170 to 172 °C.
The compound `CC(=O)NC1CCN(Cc2ccc(CCn3cnc4cc(-c5ccc(Cl)cc5)sc4c3=O)cc2)C1` (centres undefined) showed a melting point of 196 to 198 °C.
As for `O=C(NCCCCCn1ccnc1)c1cc2cc(Cl)ccc2[nH]1`, the figure is 214 to 216 °C; as for `CC12CCc3cc(C#N)ccc3C1=NNC(=O)C2` (centres undefined), above 300 °C.
In turn, `COc1cc2c3c(n(C(=O)c4ccccc4)c2cc1OC)CCC(C(=O)O)C3` (centres undefined) returned a melting point of 191 to 194 °C.
In turn, `O=c1[nH]c(=O)n2c3c1cnn3C(c1cccnc1)=CC2` displayed a melting point of 292 to 295 °C.
Turning to `CCOC(=O)c1c(C(=O)OCC)c(-c2ccc(OC)c(OC)c2)c2c(OC)c(OC)c(OC)cc2c1O`, the melting point fell in the range of 138 to 140 °C.
Then `O=C(Nc1ccccc1)c1ccc(C(=O)Nc2nnc(-c3cc(Cl)cc(Cl)c3O)s2)cc1`, with 342 °C; and `O=C(Nc1c(C(O)(C(F)(F)F)C(F)(F)F)ccc2ccccc12)c1cccnc1`, with 214 to 215 °C.
Then `Cc1cc(C)c(Cn2cc(C(=O)C(=O)NC3=CC(=O)OC3)c3ccccc32)c(C)c1`, with 288 to 290 °C; and `O=C(O)c1ccccc1-c1c2ccc(=O)cc-2oc2cc(O)ccc12`, with 185 to 190 °C; and `CC(=O)OCC1OC(n2c(Cl)nc3cc(F)c(F)cc32)C(OC(C)=O)C1OC(C)=O` (centres undefined), with 90 to 91 °C.
Then `O=C(Cl)c1ccc(S(=O)(=O)NC(=O)c2ccccc2Cl)cc1`, with 198 to 200 °C; and `Cc1ccc(C)c(SCCC(=O)O)c1`, with 100 to 102 °C; and `Cc1cc(-n2cccn2)c2cccc(OCc3c(Cl)ccc(S(=O)(=O)N4CCC[C@H]4CO)c3Cl)c2n1`, with 65 °C.
`Cc1oc(-c2ccccc2)nc1COc1ccc(Cn2cc(CCC(=O)O)cn2)cc1` had a melting point of 124 to 125 °C.
Then `O=C(Cc1ccccc1)c1c(O)c2cccnc2n(-c2ccccc2)c1=O`, with 169 to 170 °C; and `Cc1cc(O)c(N)c([N+](=O)[O-])c1`, with 197 to 199 °C.
As for `Cc1nn(-c2ccccc2)c(C)c1CC#N`, the figure is 69 to 70 °C; as for `CCOC(=O)C(C)OCc1cc2cc(C(F)(F)F)ccc2n1S(=O)(=O)c1cc(OC)ccc1OC` (centres undefined), 130 to 132 °C; as for `CCOC(=O)NC(C(=O)OC)=C1CN=C(c2ccccc2F)c2cc(Cl)ccc2N1`, 188 to 191 °C.
Then `CC(C)=CC(=O)Nc1c(C(O)(C(F)(F)F)C(F)(F)F)ccc2ccccc12`, with 135 to 137 °C.
Compound `CCCNS(=O)(=O)CCCCl` returned a melting point of 47.5 to 48 °C.
As for `COc1cc2c(cc1Nc1ncc(Cl)c(N[C@@H]3CCCC[C@H]3NS(C)(=O)=O)n1)CCNC(=O)C2`, the figure is 109 to 115 °C.
Then `CCCCCCCCCCc1nnn[nH]1`, with 57 to 59 °C; and `CCCCCCCCC(=O)Oc1ccc(-c2ccc(C#N)cc2)cc1`, with 43.2 to 43.6 °C; and `CCOC(=O)c1cn(CC)c2nc(Cl)ncc2c1=O`, with 156 °C.
Then `C=CCO/N=C(\C(=O)OC)c1csc(N)n1`, with 133 to 134 °C.

Broadly, the melting point is the temperature, or range, at which the solid turns liquid.
